In data set [1] the target is T1, F1F0 ATP hydrolase (Bos taurus, UniProt P00829+P19483).
T1 construct: in NADH-linked and NADPH-linked sub-mitochondrial (SMP) assays respectively; host or cells: sub-mitochondrial particles (SMPs)
The data set can be described thus: NADH-linked sub-mitochondrial (SMP) assay of F1F0 ATP hydrolysis. The conditions noted are these: NADH-linked and NADPH-linked SMP assays [5-6]. The class given is biochemical, bovine. From the text: For example, by separately assaying (in space and/or time) the compounds's effect upon ATP synthesis and ATP hydrolysis by ATP synthase (in its entirety or, less preferably, a component part of it). Then comparing these assay results. The greater the inhibition of reverse vs. forward mode, the more preferred this compound is for anti-cancer use. A further method is by screening/seeking compounds that inhibit ATP hydrolysis more than synthesis in submitochondrial particles (SMPs). ATP hydrolysis can be assayed by (non-limiting example) a spectroscopic assay for NADH fluorescence that incubates the SMPs with pyruvate kinase and lactate dehydrogenase enzymes (assay well-known to those of the art). ATP synthesis can be assayed by (non-limiting example) a spectroscopic assay for NADPH fluorescence that incubates the SMPs with hexokinase and glucose-6-phosphate dehydrogenase enzymes (assay well-known to those of the art). These assays are reported in any one of [5, 7, 8, 11, 12, 13, 36], and/or as referenced therein, all of which are herein incorporated in their entirety.
Compounds from, selected as specific anti-cancer therapeutics by the invention of this disclosure, selected because they inhibit the reverse, more than the forward, mode of ATP synthase. EC50 and IC50 used interchangeably. […]

For data set [2], the target named is T1, F1F0 ATP hydrolase. The conditions noted are these: Best Mode structure, SMP assay [5-6]; read-out: EC50 against F1F0ATP hydrolysis; cited from earlier work.
The conditions of data set [3]: rats, cited from earlier work.

Turning to `N#Cc1cccc(C(=O)/N=C(\Nc2ccc(Cl)cc2)N[C@H](Cn2ccnc2)c2ccc(Cl)cc2Cl)c1`, the “[EC50 F1F0 ATP synthesis/EC50 F1F0 ATP hydrolysis] ratio” value at F1F0 ATP hydrolase [1] is reported as > 5,556. Also, the EC50 at F1F0 ATP hydrolase [2] is 18 nM. Also, in data set [3], the peak concentration (Cmax) is 21 µM and the volume of distribution was 2.37 L/kg. The half-life in blood in data set [3] (intravenously applied drug) is 2.1 h. Also, the orally bioavailable in data set [3] (polyethyleneglycol:water:ethanol, 1:1:1) was 47%.

The values are drawn from US12410143B2, “Therapeutic inhibitors of the reverse mode of ATP synthase” (priority 2017, dated 2025).
